As usually defined, the IC50 is the midpoint of a concentration-inhibition curve. A high value points to lower potency.

The first experiment deals with mouse vas deferens. Kind of experiment: mouse vas deferens test (MVD). The following applies: Mus musculus, inhibition of contractions in mouse vas deferens preparation in vitro; active at 5.0 μM or less. It counts as cell-based. The text has this: (§1) Med. Assoc. 217, 1392 (1971)]. […] Opth 7, 921-923 (1975); Green and Pederson, Effect of delta-9 Tetrahydrocannabinol on Aqueous Dynamics and Ciliary Body Permeability in the Rabbit Eye., Exptl. Eye Research 15, 499-507 (1973); Colasanti, Craig and Allara, Intraocular Pressure, Ocular Toxicity and Neurotoxicity after Administration of Cannabinol or Cannibigerol, Exptl. Eye Research 39, 252-259 (1984)]. Similarly, synthetic cannabinoids also reduce intraocular pressure [Green, Symunds, Oliver and Elijah, Intraocular Pressure Following Systemic Administration of Cannabinoids, Curr. Eye Research 2, 247-253 (1982); Tiedeman, Shields, Weber, Crow, Coccetto, Harris and Howes, Ophthalmology., 88, 270-277 (1981); Colasanti et al., supra]. Cannabinoid receptor binding sites can be defined as those to which radio-labelled 4-(1,1-dimethylheptyl)-2,3'-dihydroxy-6'alpha-(3-hydroxypropyl)-1',2',3',4',5',6'-hexahydrobiphenyl (CP 55940) binds in a specific and saturable manner, and the binding sites are heterogeneously distributed in the brain [Devane, Dysarz, Johnson, Melvin and Howlett, Determination and Characterization of a Cannabinoid Receptor in Rat Brain, Molecular Pharm. 34, 605-613 (1988)]. Natural and synthetic cannabinoids and representative examples of the compounds of the present invention bind to CP 55940 binding sites. […] It is believed that agonist activity at the cannabinoid receptor mediates the anti-glaucoma actions of cannabinoids, and that agonist activity at this receptor correlates with ocular pressure lowering actions in man.
Compound `COc1ccc(C(=O)c2cn(CCN3CCOCC3)c3ccccc23)cc1` [Example 1A, 3-(4-methoxybenzoyl)-1-[2-(4-morpholinyl)ethyl]1H-indole methanesulfonate monohydrate] yielded an IC50 of 100 nM. The same measure, in the same setting: as for `Cc1c(C(=O)c2cccc3ccccc23)c2ccccc2n1CCN1CCOCC1` [Example 1AP], the figure is 15 nM.

Compound `COc1ccc(C(=O)c2c(C)n(CCN3CCOCC3)c3ccccc23)c(OC)c1OC` [Example 1CA] returned an IC50 of 70 nM.

`Cc1c(C(=O)c2csc3ccccc23)c2ccccc2n1CCN1CCOCC1` [Example 1Q] returned an IC50 of 18 nM. Compared with the last compound, the IC50 is about 3.9-fold lower. Still for that read-out and setting: as for `O=C(c1ccc2occc2c1)c1cn(CCN2CCOCC2)c2ccccc12` [Example 2BR], the figure is 30 nM; as for `COCc1ccc(C(=O)c2c(C)n(CCN3CCOCC3)c3ccccc23)cc1` [Example 2BW], 900 nM. The same measure, in the same setting: under `Cc1ccc(C(=O)c2c(C)n(CCN3CCOCC3)c3ccccc23)c2ccccc12` [Example 2CA] stands 9 nM. Same read-out and setting: under `Cc1ccc(C(=O)c2cn(CCN3CCOCC3)c3ccccc23)c2ccccc12` [Example 2CB] stands 3 nM; under `O=C(c1cccc2cc(Cl)ccc12)c1cn(CCN2CCOCC2)c2ccccc12` [Example 2CE], 88 nM; under `Cc1c(C(=O)c2ccc(Cl)cc2Cl)c2ccccc2n1CCN1CCOCC1` [Example 2CF], 200 nM. `Cc1c(C(=O)c2cc3ccc4cccc5ccc(c2)c3c45)c2ccccc2n1CCN1CCOCC1` [Example 2CG] returned an IC50 of 40 nM. Same read-out and setting: under `Cc1c(C(=O)c2ccccc2Cl)c2ccccc2n1CCN1CCOCC1` [Example 2CH] stands 91 nM.

As for `O=C(c1ccc2ccccc2c1)c1cn(CCN2CCOCC2)c2ccccc12` [Example 2CJ], half-maximal inhibition (IC50) was put at 31 nM. On the same count and under the same terms, under `CC(CN1CCOCC1)n1cc(C(=O)c2ccccc2F)c2ccccc21` (centres unmarked) [Example 2E] stands 2400 nM; under `COc1ccc(C(=O)c2c(C)n(C(C)CN3CCOCC3)c3ccccc23)cc1` (centres unmarked) [Example 2G], 1300 nM; under `Cc1cccc2c(C(=O)c3ccccc3)cn(C(C)CN3CCOCC3)c12` (centres unmarked) [Example 2H], 177 nM. The same measure, in the same setting: under `Cc1ccccc1C(=O)c1c(C)n(CCN2CCOCC2)c2ccccc12` [Example 2K] stands 710 nM; under `Cc1c(C(=O)c2coc3ccccc23)c2ccccc2n1CCN1CCOCC1` [Example 2N], 52 nM.

`COc1ccc(C(=O)c2c(Cl)n(CCN3CCOCC3)c3ccccc23)cc1` [Example 2Q] came in with an IC50 of 176 nM. Still for that read-out and setting: under `Cc1c(C(=O)c2cccc3ccccc23)c2ccccc2n1C(C)CN1CCOCC1` (centres unmarked) [Example 2Y] stands 10 nM; under `O=C(c1cccc2ccccc12)c1cn(CCN2CCOCC2)c2ccccc12` [Example 2Z], 6 nM. Take `Cc1c(C(=O)c2cccc3ccccc23)c2ccccc2n1CCN1CCCCC1` [Example 3A, 2-methyl-3-(1-naphthylcarbonyl)-1-[2-(1-piperidinyl)ethyl]-1H-indole]: the 50% inhibitory concentration (IC50) amounted to 66 nM. For the compound `COc1ccc(C(=O)c2c(C)n(CCN3CCCC(O)C3)c3ccccc23)cc1` (centres unmarked) [Example 3B], the IC50 is > 10000 nM. Still for that read-out and setting: as for `Cc1c(C(=O)c2cccc3ccccc23)c2ccccc2n1CCN1CCCC(O)C1` (centres unmarked) [Example 3D], the figure is 236 nM.

Compound `Cc1c(C(=O)c2cccc3ccccc23)c2ccccc2n1CCN1CCOC(C)C1` (centres unmarked) [Example 3E] returned an IC50 of 210 nM. On the same count and under the same terms, under `CCN(CC)CCCn1c(C)c(C(=O)c2ccc(OC)cc2)c2ccccc21` [Example 3J] stands > 10000 nM. Still for that read-out and setting: as for `Cc1c(C(=O)c2cccc3ccccc23)c2ccccc2n1CCN1CCOCC1C` (centres unmarked) [Example 3K], the figure is 30 nM; as for `Cc1c(C(=O)c2cccc(N)c2)c2ccccc2n1CCN1CCOCC1` [Example 4A, 2-methyl-3-(3-aminobenzoyl)-1-[2 (4-morpholinyl)ethyl]-1H-indole], 700 nM. The same measure, in the same setting: under `Cc1c(C(=O)c2ccc(N)cc2)c2ccccc2n1CCN1CCOCC1` [Example 4B, 2-methyl-3-(4-aminobenzoyl)-1-[2-(4morpholinyl)ethyl]-1H-indole] stands 520 nM. On to `Cc1c(C(=O)c2cccc(O)c2O)c2ccccc2n1CCN1CCOCC1` [Example 5A, 2-methyl-3-(2,3-dihydroxybenzoyl)-1-[2-(4-morpholinyl)ethyl]-1H-indole], for which the IC50 stood at 180 nM. This IC50 lies about 2.9-fold lower than the previous one. Still for that read-out and setting: as for `O=C(c1cccc2ccccc12)c1cn(CCN2CCOCC2)c2ccc(O)cc12` [Example 5B, 5-hydroxy-3-(1-naphthylcarbonyl)-1-[2-(4-morpholinyl)ethyl]-1H-indole], the figure is 20 nM. On the same count and under the same terms, under `COc1ccc(C(=O)c2cn(CCN3CCOCC3)c3c(O)cccc23)cc1` [Example 5C, 7-hydroxy-3-(4-methoxybenzoyl)-1-[2-(4-morpholinyl)ethyl]-1H-indole] stands 400 nM; under `Cc1c(C(=O)c2ccc(C#N)c3ccccc23)c2ccccc2n1CCN1CCOCC1` [Example 7A, 2-methyl-3-(4-cyano-1-naphthylcarbonyl)-1-[2-(4-morpholinyl)ethyl]-1H-indole], 14 nM. The same measure, in the same setting: under `Cc1c(C(=O)c2ccc(-n3ccnc3)c3ccccc23)c2ccccc2n1CCN1CCOCC1` [Example 7B] stands 5 nM; under `O=C(c1ccc(-n2ccnc2)c2ccccc12)c1cn(CCN2CCOCC2)c2ccccc12` [Example 7C], 8 nM. With `N#Cc1ccc(C(=O)c2cn(CCN3CCOCC3)c3ccccc23)c2ccccc12` [Example 7D], the IC50 was 5 nM.

For the compound `COc1ccc(C(=S)c2c(C)n(CCN3CCOCC3)c3ccccc23)cc1` [Example 9, 2-methyl-3-(4-methoxyphenylthiocarbonyl)-1-[2-(4-morpholinyl)-ethyl]-1H-indole], inhibition was half-maximal at 110 nM (IC50).

Still in this experiment, the particulars now being: inhibition of contractions in mouse vas deferens preparation in vitro; active at 5.0 μM or less.
The compound `COc1ccc(C(=O)c2c(C)n(CCN3CCOCC3)c3ccccc23)cc1` [Example 1B] showed an IC50 of 500 nM. That is a sub-micromolar value. On the same count and under the same terms, as for `Cc1c(C(=O)c2ccccc2F)c2ccccc2n1C(C)CN1CCOCC1` (centres unmarked) [Example 2C], the figure is 490 nM.

A further experiment deals with intraocular pressure.
Assay: not given
The following applies: topical application or systemic injection; cited from earlier work.
As to `CCCCCc1cc(O)c2c(c1)OC(C)(C)[C@@H]1CCC(C)=C[C@@H]21` [delta-9 tetrahydrocannabinol], the intraocular pressure entry is listed as “reduces intraocular pressure”.

In the next experiment the target is T1, cannabinoid receptor (CP 55940 binding sites) (Rattus norvegicus, UniProt P20272).
T1 construct: from tissue
T1 sequence (P20272 whole entry): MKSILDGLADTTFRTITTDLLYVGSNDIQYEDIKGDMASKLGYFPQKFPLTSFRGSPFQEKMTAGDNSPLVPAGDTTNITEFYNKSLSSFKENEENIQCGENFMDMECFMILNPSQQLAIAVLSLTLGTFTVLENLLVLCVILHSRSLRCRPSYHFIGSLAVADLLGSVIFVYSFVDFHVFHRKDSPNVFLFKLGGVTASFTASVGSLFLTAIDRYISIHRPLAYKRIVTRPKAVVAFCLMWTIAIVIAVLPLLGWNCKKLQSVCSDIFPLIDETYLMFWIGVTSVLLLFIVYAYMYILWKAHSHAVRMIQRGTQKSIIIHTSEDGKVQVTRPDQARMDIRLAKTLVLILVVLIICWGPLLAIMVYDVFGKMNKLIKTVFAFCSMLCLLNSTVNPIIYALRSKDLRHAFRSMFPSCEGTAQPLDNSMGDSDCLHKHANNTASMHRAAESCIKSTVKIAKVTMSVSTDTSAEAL
Kind of experiment: CP55490 binding assay (CP). Conditions: CP55490 binding assay.
Description: as §1
In the case of `Cc1c(C(=O)c2cccc3ccccc23)c2ccccc2n1CCN1CCOCC1` [Example 1AP], the IC50 is 51 nM. In other words, the double-digit nanomolar range.

Turning to `COc1ccc(C(=O)c2c(C)n(CCN3CCOCC3)c3ccccc23)cc1` [Example 1B], the IC50 was in the range of 3000 to 10000 nM. Same read-out and setting: as for `Cc1c(C(=O)c2csc3ccccc23)c2ccccc2n1CCN1CCOCC1` [Example 1Q], the figure is ~50 nM; as for `O=C(c1cccc2ccccc12)c1cn(CCN2CCOCC2)c2ccccc12` [Example 2Z], 88 nM; as for `Cc1c(C(=O)c2cccc3ccccc23)c2ccccc2n1CCN1CCCC(O)C1` (centres unmarked) [Example 3D], 200 to 500 nM.

The experiment is the same for the next values; noted with them: at 1 μM; read-out: CP % I.
For `COc1ccc(C(=O)c2cn(CCN3CCOCC3)c3ccccc23)cc1` [Example 1A, 3-(4-methoxybenzoyl)-1-[2-(4-morpholinyl)ethyl]1H-indole methanesulfonate monohydrate], the inhibition at 1 µM is 59%. Same read-out and setting: as for `COc1ccc(C(=O)c2c(C)n(CCN3CCOCC3)c3ccccc23)c(OC)c1OC` [Example 1CA], the figure is 70%.

The record behind these values is patent US4973587A, “3-arylcarbonyl-1-aminoalkyl-1H-indole-containing antiglaucoma method” (Sterling Drug Inc., priority 1990, dated 1990).
